Reference: publication PMC10980263, “Cryo-EM structures of the human NaS1 and NaDC1 transporters revealed the elevator transport and allosteric regulation mechanism” (Science Advances, 2024)
Positions count from the first letter of the chain named.

How the values were obtained:
Assay type in all cases: binding
NaDC1 [1] = molecular target: T1, NaDC1 (Homo sapiens, UniProt Q13183, I550V); experiment: cryo-EM structure ([…] Å); conditions: 10 mM sodium citrate; substrate site; Na+ at Na1 and Na2
T1 construct: gene SLC13A2; full length, homodimer; N-terminal FLAG purified from HEK293F (structures, natural variant I550V); GFP and FLAG tagged in HEK293T for currents
T1 sequence (Q13183 1-592 I550V): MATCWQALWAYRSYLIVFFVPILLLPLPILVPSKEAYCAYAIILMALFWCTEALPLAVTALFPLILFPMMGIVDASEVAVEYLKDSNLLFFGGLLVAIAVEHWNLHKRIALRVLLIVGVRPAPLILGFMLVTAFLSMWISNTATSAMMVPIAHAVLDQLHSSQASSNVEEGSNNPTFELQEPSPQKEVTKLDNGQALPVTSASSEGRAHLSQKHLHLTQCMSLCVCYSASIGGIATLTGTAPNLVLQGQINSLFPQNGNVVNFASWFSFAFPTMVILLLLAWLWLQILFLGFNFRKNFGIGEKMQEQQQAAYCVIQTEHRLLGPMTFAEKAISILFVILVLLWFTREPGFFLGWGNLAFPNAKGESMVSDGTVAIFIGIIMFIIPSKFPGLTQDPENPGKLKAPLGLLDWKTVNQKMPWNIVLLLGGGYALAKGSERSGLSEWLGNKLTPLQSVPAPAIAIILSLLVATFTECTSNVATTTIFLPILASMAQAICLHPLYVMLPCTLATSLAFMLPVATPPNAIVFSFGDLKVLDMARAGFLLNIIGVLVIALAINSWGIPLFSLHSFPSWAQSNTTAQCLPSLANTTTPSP

NaDC1 [2] = molecular target: T2, NaDC1 (Homo sapiens, UniProt Q13183, S140A); experiment: CD thermal melting at […] nm; conditions: absolute Tm in presence of citrate, not a shift
T2 construct: gene SLC13A2; full length, homodimer; N-terminal FLAG purified from HEK293F (structures, natural variant I550V); GFP and FLAG tagged in HEK293T for currents
T2 sequence (Q13183 1-592 S140A): T1 sequence (Q13183 1-592 I550V) with S140A, V550I

NaDC1 [3] = molecular target: T3, NaDC1 (Homo sapiens, UniProt Q13183, T142A); experiment: CD thermal melting at […] nm; conditions: absolute Tm in presence of citrate, not a shift
T3 construct: gene SLC13A2; full length, homodimer; N-terminal FLAG purified from HEK293F (structures, natural variant I550V); GFP and FLAG tagged in HEK293T for currents
T3 sequence (Q13183 1-592 T142A): T1 sequence (Q13183 1-592 I550V) with T142A, V550I

O=C(O)CC(O)(CC(=O)O)C(=O)O [citrate]
cryo-EM structure (2.7 Å) (NaDC1 [1]): we discern two sodium ions and one citrate molecule distinctly situated within a single protomer | Tm (NaDC1 [2]): 57.1 ± 0.7 °C | Tm (NaDC1 [3]): 56.4 ± 0.3 °C
